Legend:
[1] = Example 13A: Compound 1 IV PK study in monkey; type: in vivo, male non-naïve cynomolgus monkeys; settings: 0.2 mg/kg
Procedure: A 0.2 mg/mL solution of Compound 1 in 10% DMSO, 10% Solutol HS15 and 80% Saline was prepared as follows: • 1) A stock solution of Compound 1 in DMSO was prepared. • 2) An equal volume of the Compound 1 stock solution and Solutol HS15 were combined and mixed. • 3) The above solution was diluted with normal saline to reach the target concentration. The final formulation was a clear solution. Male non-naïve Cyno Monkeys with were used for the monkey PK study. The animals had free access to food and water. The Compound 1 solution described above was administered via intravenous injection (1 mL/kg) to each animal (n=3) to achieve a 0.2 mg/kg dose. At each time point, approximately 0.5 mL whole blood was collected into K2EDTA tubes. Blood samples were put on to ice and centrifuged at 2000 g for 5 min to obtain plasma sample within 15 minutes. Plasma samples were stored at approximately −70° C. until analyzed by LC-MS.

[2] = Example 7: Compound 1 aqueous suspension SC PK study in monkey; type: in vivo, male cynomolgus monkeys; settings: aqueous suspension (Form A), 10 mg/kg
Procedure: The LC-MS methodology and conditions used to analyse the helicase-primase inhibitor Compound 1 in plasma samples from the sub-cutaneous injection PK studies (Examples 7 and 10-12) are described in Table 3 and Table 4. An aqueous suspension of crystalline Compound 1 (Form A) was prepared in a 0.9% NaCl+0.5% polysorbate 80 vehicle at a concentration of 3.0 mg/mL as described in Example 3. The suspension was then dosed to male cyno monkeys at 10 mg/kg according to the Example 3 animal dosing method.

[3] = Example 17: Compound 1 (Form C) microsuspension and nanosuspension SC and IM PK study in rat; type: in vivo, male Sprague Dawley rats; settings: for prolonged exposure for (length of the study): 20 mg/animal (~80 mg/kg), micro- and nano-suspensions (Form C), both formulations
Procedure: The LC-MS methodology and conditions used to analyse Compound 1 in rat plasma samples from the PK study described in Example 17 are given in Table 10.
An aqueous microsuspension of crystalline Compound 1 free form (crystalline Form C) in a 20 mg/mL PVP K30, 10 mg/mL poloxamer 188 and 50 mg/mL mannitol vehicle at a concentration of 200 mg/mL was prepared as follows: • 1) Crystalline Compound 1 (Form C) was jet milled to obtain microparticles (Dv90<10 μm). • 2) Jet milled material was dispersed in 20 mg/ml PVP K30+10 mg/ml Poloxamer 188+50 mg/ml mannitol to obtain a homogeneous suspension. • 3) The suspension was subjected to freeze drying to obtain a freeze-dried powder. • 4) Appropriate amounts of freeze-dried powder (based on assay) were weighed and added to water to obtain a 200 mg/ml suspension. • 5) The mixture was stirred for 5 minutes. • 6) The final dosing formulation was a homogenous white cloudy suspension.
An aqueous nano-suspension of crystalline Compound 1 free form (crystalline Form C) in a 20 mg/mL PVP K30, 10 mg/mL poloxamer 188 and 50 mg/mL mannitol vehicle at a concentration of 200 mg/mL was prepared as follows: • 1) 20 mg/mL crystalline Compound 1 (Form C) was dispersed into a solution of 2 mg/mL PVP K30 1.0 mg/mL poloxamer 188 and 5 mg/mL mannitol • 2) The suspension was subjected to high pressure homogenizer until the size was around 1 μm. • 3) After particle size reduction, the suspension was subjected to freeze drying to obtain a freeze-dried powder. • 4) The freeze-dried powder was reconstituted with water to obtain a 100 mg/mL suspension. • 5) The suspension was wet milled (10:1 0.1 mm zirconium oxide milling beads: Compound 1) at 900 rpm for 600 minutes to reduce particle size to nanosized particles (Dv90<200 nm). • 6) This nanosuspension was subjected to freeze drying to obtain a freeze-dried powder. • 7) Appropriate amounts of freeze-dried powder (based on assay) were weighed and added to water to obtain a 200 mg/ml suspension. • 8) The mixture was stirred for 10 minutes. • 9) The final dosing formulation was a homogenous white cloudy suspension.
Male Sprague Dawley (SD) rats with ~230-250 g body weight (aged 6-8 weeks) were used for the pharmacokinetic study. The animals had free access to food and water. The Compound 1 solution described above was administered via sub-cutaneous or intra-muscular injection to each animal group (n=3) with a dosing volume of 0.1 mL/animal (~0.4 mL/kg) to achieve a 20 mg/animal dose (~80 mg/kg).
At each time point, approximately 150 μL whole blood was collected in a K2EDTA tube via the jugular vein. Blood samples were put on ice and centrifuged at 2000 g for 5 min to obtain a plasma sample within 15 minutes. Plasma samples were stored at approximately −70° C. until analyzed by LC-MS.

[4] = Example 4: pritelivir aqueous suspension SC PK study in dog; type: in vivo, male non-naïve Beagle dogs; settings: aqueous suspension (dihydrate), 10 mg/kg, following an initial drug burst
Procedure: The LC-MS methodology and conditions used to analyse pritelivir in plasma samples from the PK studies described in Examples 1 to 5 are provided in Table 1.
An aqueous suspension of crystalline pritelivir free base (dihydrate) in a 0.9% NaCl+0.5% poloxamer 188 vehicle at a concentration of 5.0 mg/mL was prepared as follows: • 1) Vehicle (0.9% w/w NaCl and 0.5% w/w poloxamer 188) was prepared by dissolving NaCl and poloxamer 188 in water. • 2) Appropriate amount of crystalline pritelivir free base (dihydrate) was weighed and added to the vehicle. • 3) Mixture was stirred for 15 minutes, then vortexed for 1 minute and then sonicated for 10 minutes. • 4) The final dosing formulation was a homogenous white cloudy suspension.
Male non-naïve beagles were used for the dog PK study. The animals had free access to food and water. The prepared suspension was administered via subcutaneous injection to each animal group (n=3) with a dosing volume of 2 mL/kg to achieve a 10 mg/kg dose.
At each time point, approximately 0.5 mL of whole blood was collected into K2EDTA tubes. Blood samples were put on ice and centrifuged at 2000 g for 5 min to obtain plasma samples within 15 minutes. Plasma samples were stored at approximately −70° C. until analyzed by LC-MS.

Plasma protein binding = type: in vitro ADME; settings: read-out: free fraction of the total plasma concentration

Compound	Clearance [1] [mL/h/kg]	half-life [1] [h]	prolonged exposure out to (length of the study) [2]	plasma levels, intramuscular compared with subcutaneous injection ([3]; 20 mg/animal, micro- and nano-suspensions)	plasma levels, nanosuspension compared with microsuspension ([3]; intramuscular, 20 mg/animal)	prolonged exposure for (length of the study) ([3]; intramuscular)	adverse reactions at the injection sites ([3]; intramuscular, micro- and nano-suspensions)	prolonged exposure for (length of the study) ([3]; subcutaneous)	plasma levels, nanosuspension compared with microsuspension ([3]; subcutaneous, 20 mg/animal, throughout the test period)	adverse reactions at the injection sites ([3]; subcutaneous, micro- and nano-suspensions)	plasma exposure after SC administration [4]	fraction unbound (Plasma protein binding)
Cc1nc(N2CCCN(c3ccc(-c4cc(F)ccc4F)cc3)C2=O)sc1S(N)(=O)=O [Compound 1, 2-(3-(2′,5′-difluoro-[1,1′-biphenyl]-4-yl)-2-oxotetrahydropyrimidin-1(2H)-yl)-4-methylthiazole-5-sulfonamide]	4	72	at least 1392 hours	plasma levels were higher than those achieved by these formulations when administered by subcutaneous injection	nanosuspension provided higher plasma levels than the microsuspension	at least 600 hours	no adverse reactions observed	at least 600 hours	nanosuspension provided higher plasma levels than the microsuspension	no adverse reactions observed		
Cc1nc(N(C)C(=O)Cc2ccc(-c3ccccn3)cc2)sc1S(N)(=O)=O [pritelivir, N-methyl-N-(4-methyl-5-sulfamoyl-1,3-thiazol-2-yl)-2-[4-(pyridin-2-yl)phenyl]acetamide]											prolonged exposure was achieved	0.02 to 0.03
